Data as given in PMC5053523, “In Vitro Antibacterial Activity of Rhodanine Derivatives against Pathogenic Clinical Isolates” (PLoS ONE, 2016).
In brackets after ≈: the same amount, converted by molar mass. Read-outs that look alike come from different tables or passages of the source.

Key:
Format in all cases: cell-based
Acinetobacter baumannii = assay: MIC with/without sub-MIC colistin, Acinetobacter baumannii
Outline: (§1)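 Compounds plus sub-inhibitory colistin or PMBN; MIC against Gram-negatives, with control antibiotics in parallel.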

[1] = tested on: methicillin-resistant Staphylococcus aureus (MRSA); assay: Broth microdilution MIC/MBC, MRSA
B. licheniformis = assay: Broth microdilution MIC/MBC, B. licheniformis; conditions: Bacillus licheniformis; for MBC: read-out: MBC; for MIC: read-out: MIC
Klebsiella pneumoniae = assay: MIC with/without PMBN, Klebsiella pneumoniae
Outline: as §1

[2] = tested on: vancomycin resistant enterococci (VRE); assay: Broth microdilution MIC50/MIC90, VRE panel; conditions: Enterococcus, 10 VRE strains
Mycobacterium smegmatis = assay: Broth microdilution MIC/MBC, Mycobacterium smegmatis; conditions: Mycolicibacterium smegmatis, ATCC14468, M. Smegmatis ATCC 14468
Candida albicans = assay: MIC against Candida albicans; conditions: table prints none, read-out: MIC
[3] = tested on: Vancomycin Resistant Staphylococcus aureus (VRSA); assay: Broth microdilution MIC/MBC, VRSA; conditions: for MBC / MIC: VRSA
Bacillus anthracis = assay: microbe, parasite or virus in culture
Clostridium difficile = assay: MIC against Clostridium difficile, anaerobic broth dilution; conditions: Clostridioides difficile
Outline: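 Clinical C. difficile isolates grown anaerobically 48 h at 37 °C, suspended to 0.5 McFarland and diluted 1:300 in pre-reduced supplemented Brain Heart Infusion broth. Compounds serially diluted; plates incubated anaerobically at 37 °C for 48 h. MIC = lowest concentration with no visible growth.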

[4] = NCIB9375, B. licheniformis Gibson 46 (NCIB 9375) NR-2494
[5] = NRS712, B. licheniformis NRS 712 NR-2499

Work on O=C(O)[C@@H](Cc1ccccc1)N1C(=O)/C(=C/c2cccc(Oc3ccc(F)cc3)c2)SC1=S [Rh 4] yielded an MIC (Acinetobacter baumannii; Acinetobacter baumannii ATCC BAA747, colistin (+) […], read-out: MIC) of over 64 µM, an MIC (Acinetobacter baumannii; Acinetobacter baumannii ATCC BAA19606, colistin (+) […], read-out: MIC) of over 64 µM and an MIC (Acinetobacter baumannii; Acinetobacter baumannii, ATCCBAA747) of over 128 µM. It also gave an MIC (Acinetobacter baumannii; Acinetobacter baumannii, ATCCBAA19606) of over 128 µM, an MIC50 ([1]; 11 MRSA strains) of 16 µM (≈ 7.67 µg/mL) and an MIC90 ([1]; 11 MRSA strains) of 32 µM (≈ 15.3 µg/mL). The MBC ([1]; MRSA NRS 1) was 32 µM (≈ 15.3 µg/mL), the MIC ([1]; MRSA NRS 1) was 16 µM (≈ 7.67 µg/mL) and the MBC ([1]; MRSA NRS 19) was 32 µM (≈ 15.3 µg/mL). For the same compound, the MIC ([1]; MRSA NRS 19) was 16 µM (≈ 7.67 µg/mL), the MBC ([1]; MRSA NRS 37) was 32 µM (≈ 15.3 µg/mL) and the MIC ([1]; MRSA NRS 37) was 32 µM (≈ 15.3 µg/mL). The MBC ([1]; MRSA NRS 107) was 32 µM (≈ 15.3 µg/mL), the MIC ([1]; MRSA NRS 107) was 16 µM (≈ 7.67 µg/mL) and the MBC ([1]; MRSA NRS 119) was 32 µM (≈ 15.3 µg/mL). It also gave an MIC ([1]; MRSA NRS 119) of 16 µM (≈ 7.67 µg/mL), an MBC ([1]; MRSA NRS 382) of 16 µM (≈ 7.67 µg/mL) and an MIC ([1]; MRSA NRS 382) of 16 µM (≈ 7.67 µg/mL). For the same compound, the MBC ([1]; MRSA NRS 383) was 32 µM (≈ 15.3 µg/mL), the MIC ([1]; MRSA NRS 383) was 32 µM (≈ 15.3 µg/mL) and the MBC ([1]; MRSA NRS 384) was 64 µM (≈ 30.7 µg/mL). The MIC ([1]; MRSA NRS 384) was 16 µM (≈ 7.67 µg/mL), the MBC ([1]; MRSA NRS 385) was 32 µM (≈ 15.3 µg/mL) and the MIC ([1]; MRSA NRS 385) was 16 µM (≈ 7.67 µg/mL). For the same compound, the MBC ([1]; MRSA NRS 386) was over 64 µM, the MIC ([1]; MRSA NRS 386) was 16 µM (≈ 7.67 µg/mL) and the MBC ([1]; MRSA NRS 387) was 64 µM (≈ 30.7 µg/mL). The MIC ([1]; MRSA NRS 387) was 16 µM (≈ 7.67 µg/mL), the MBC (B. licheniformis; [4]) was 16 µM (≈ 7.67 µg/mL) and the MIC (B. licheniformis; [4]) was 16 µM (≈ 7.67 µg/mL). It also gave an MBC (B. licheniformis; [5]) of 16 µM (≈ 7.67 µg/mL), an MIC (B. licheniformis; [5]) of 16 µM (≈ 7.67 µg/mL) and an MIC (Klebsiella pneumoniae; Klebsiella pneumoniae ATCC BAA 1706, PMBN (+) 4 μg/mL) of over 64 µM. The MIC (Klebsiella pneumoniae; Klebsiella pneumoniae ATCC BAA 2146, PMBN (+) 4 μg/mL) was over 64 µM, the MIC (Klebsiella pneumoniae; Klebsiella pneumoniae, BAA1706) was over 128 µM and the MIC (Klebsiella pneumoniae; Klebsiella pneumoniae, BAA2146) was over 128 µM. It also gave an MIC90 ([2]; VRE, read-out: MIC 90) of 32 µM (≈ 15.3 µg/mL), an MIC50 ([2]; read-out: MIC 50) of 32 µM (≈ 15.3 µg/mL) and an MBC (Mycobacterium smegmatis; read-out: MBC) of over 64 µM. It also gave an MIC (Mycobacterium smegmatis; read-out: MIC) of 32 µM (≈ 15.3 µg/mL), an MIC (Candida albicans; ATCC10231, C. albicans ATCC 10231, unit from abstract) of over 64 µM and an MIC (Candida albicans; C. albicans NR 29434, unit from abstract) of over 64 µM. It also gave an MIC (Candida albicans; C. albicans NR 29435, unit from abstract) of over 64 µM, an MIC (Candida albicans; C. albicans NR29437, unit from abstract) of over 64 µM and an MIC (Candida albicans; C. albicans NR29438, unit from abstract) of over 64 µM. For the same compound, the MIC (Candida albicans; C. albicans NR 29446, unit from abstract) was 64 µM (≈ 30.7 µg/mL), the MIC (Candida albicans; C. albicans NR 29448, unit from abstract) was over 64 µM and the MIC (Candida albicans; C. albicans NR 29449, unit from abstract) was over 64 µM. The MIC (Candida albicans; C. albicans NR 29453, unit from abstract) was over 64 µM, the MIC (Candida albicans; C. albicans NR 294436, unit from abstract) was over 64 µM and the MIC50 ([3]; 15 VRSA strains, read-out: MIC 50) was 16 µM (≈ 7.67 µg/mL). The MIC90 ([3]; 15 VRSA strains, read-out: MIC 90) was 16 µM (≈ 7.67 µg/mL), the MBC ([3]; VRSA 1, read-out: MBC) was 64 µM (≈ 30.7 µg/mL) and the MIC ([3]; VRSA 1, read-out: MIC) was 16 µM (≈ 7.67 µg/mL). For the same compound, the MBC ([3]; VRSA 2, read-out: MBC) was 16 µM (≈ 7.67 µg/mL), the MIC ([3]; VRSA 2, read-out: MIC) was 16 µM (≈ 7.67 µg/mL) and the MBC ([3]; VRSA 3a, read-out: MBC) was 32 µM (≈ 15.3 µg/mL). It also gave an MIC ([3]; VRSA 3a, read-out: MIC) of 16 µM (≈ 7.67 µg/mL), an MBC ([3]; VRSA 3b, read-out: MBC) of 16 µM (≈ 7.67 µg/mL) and an MIC ([3]; VRSA 3b, read-out: MIC) of 16 µM (≈ 7.67 µg/mL). For the same compound, the MBC ([3]; VRSA 4, read-out: MBC) was 64 µM (≈ 30.7 µg/mL), the MIC ([3]; VRSA 4, read-out: MIC) was 16 µM (≈ 7.67 µg/mL) and the MBC ([3]; VRSA 5, read-out: MBC) was 32 µM (≈ 15.3 µg/mL). It also gave an MIC ([3]; VRSA 5, read-out: MIC) of 16 µM (≈ 7.67 µg/mL), an MBC ([3]; VRSA 6, read-out: MBC) of 32 µM (≈ 15.3 µg/mL) and an MIC ([3]; VRSA 6, read-out: MIC) of 16 µM (≈ 7.67 µg/mL). It also gave an MBC ([3]; VRSA 7, read-out: MBC) of 32 µM (≈ 15.3 µg/mL), an MIC ([3]; VRSA 7, read-out: MIC) of 16 µM (≈ 7.67 µg/mL) and an MBC ([3]; VRSA 8, read-out: MBC) of 32 µM (≈ 15.3 µg/mL). It also gave an MIC ([3]; VRSA 8, read-out: MIC) of 16 µM (≈ 7.67 µg/mL), an MBC ([3]; VRSA 9, read-out: MBC) of 32 µM (≈ 15.3 µg/mL) and an MIC ([3]; VRSA 9, read-out: MIC) of 32 µM (≈ 15.3 µg/mL). It also gave an MBC ([3]; VRSA 10, read-out: MBC) of 32 µM (≈ 15.3 µg/mL), an MIC ([3]; VRSA 10, read-out: MIC) of 16 µM (≈ 7.67 µg/mL) and an MBC ([3]; VRSA 11a, read-out: MBC) of 64 µM (≈ 30.7 µg/mL). For the same compound, the MIC ([3]; VRSA 11a, read-out: MIC) was 16 µM (≈ 7.67 µg/mL), the MBC ([3]; VRSA 11b, read-out: MBC) was 64 µM (≈ 30.7 µg/mL) and the MIC ([3]; VRSA 11b, read-out: MIC) was 16 µM (≈ 7.67 µg/mL). For the same compound, the MBC ([3]; VRSA 12, read-out: MBC) was 64 µM (≈ 30.7 µg/mL), the MIC ([3]; VRSA 12, read-out: MIC) was 16 µM (≈ 7.67 µg/mL) and the MBC ([3]; VRSA 13, read-out: MBC) was 64 µM (≈ 30.7 µg/mL). For the same compound, the MIC ([3]; VRSA 13, read-out: MIC) was 16 µM (≈ 7.67 µg/mL), the MBC (Bacillus anthracis; Bacillus anthracis AMES35) was 4 µM (≈ 1.92 µg/mL) and the MIC (Bacillus anthracis; Bacillus anthracis AMES35) was 4 µM (≈ 1.92 µg/mL). For the same compound, the MBC (Bacillus anthracis; Bacillus anthracis UM23) was 4 µM (≈ 1.92 µg/mL), the MIC (Bacillus anthracis; Bacillus anthracis UM23) was 4 µM (≈ 1.92 µg/mL) and the MBC (Bacillus anthracis; Bacillus anthracis Weybridge) was 4 µM (≈ 1.92 µg/mL). The MIC (Bacillus anthracis; Bacillus anthracis Weybridge) was 4 µM (≈ 1.92 µg/mL), the MIC (Clostridium difficile; C. difficile HM-88) was 4 µM (≈ 1.92 µg/mL) and the MIC (Clostridium difficile; C. difficile HM-745) was 2 µM (≈ 0.959 µg/mL). The MIC (Clostridium difficile; C. difficile HM-746) was 2 µM (≈ 0.959 µg/mL), the MIC (Clostridium difficile; C. difficile Isolate-1 NR-13427) was 2 µM (≈ 0.959 µg/mL) and the MIC (Clostridium difficile; C. difficile Toxigenic Strain P8 NR-32888) was 4 µM (≈ 1.92 µg/mL).
